In PubChem BioAssay AID179 (DTP/NCI, 2004):
Activity calls are given as the source filed them.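 Rule for the calls: active = compounds giving half or more protection of infected cells from virus-caused growth loss, again on retest; inactive = the rest.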

Test system: CEM cells HIV-1 protection, formazan growth assay
Assay: NCI AIDS Antiviral Assay
Details: for IC50: measured here: growth of uninfected CEM cells
How it was run: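 Screen of anti-HIV-1 activity in human CEM cells using a formazan-based growth measurement at five drug concentrations. Hits with 50% or greater protection were repeated, and confirmation required reproducible complete protection.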

Question: How did the EC50 turn out when `Cn1ccnc1.Cn1ccnc1.Cn1ccnc1.Cn1ccnc1.[O-][Cl+3]([O-])([O-])[O-].[Pt+2]` was run?
Answer: The EC50 was greater than 200 µM.

Question: What about the IC50 of the same compound?
Answer: The IC50 was greater than 200 µM.

Question: For `COc1ccc(-c2c(N)n(-c3nc4ccccc4s3)c(=O)c3cc([N+](=O)[O-])ccc23)cc1`, which EC50 is on record?
Answer: Its EC50 is greater than 100 µM.

Question: What about the IC50 of the same compound?
Answer: Its IC50 is 1.07 µM.

Question: What does the source list for `Fc1nc(-c2c3ccccc3c3sc4ccccc4n23)nc(N2CCOCCOCCOCCOCC2)n1`?
Answer: EC50: > 200 µM; IC50: 51.3 µM

Question: How did the EC50 turn out when `O=S(=O)(C/C(=N\O)c1ccccc1)c1ccccc1` was run?
Answer: Its EC50 is greater than 324 µM.

Question: What about the IC50 of the same compound?
Answer: The IC50 was 182 µM.

Question: For `O=C(CCCCC(=O)OCC1COCO1)OCC1COCO1` (stereo not given), which EC50 is on record?
Answer: Its EC50 is greater than 200 µM.

Question: And the IC50?
Answer: The IC50 was greater than 200 µM.

Question: With `Cc1nn2c(c1C#N)NNc1c-2sc(=N)nnc1=O` as the compound, how does the EC50 read?
Answer: The EC50 was 31.6 µM.

Question: What about the IC50 of the same compound?
Answer: Its IC50 is 43.7 µM.

Question: Which EC50 does the source give for `O=C(O)CSSCC(=O)O` here?
Answer: Its EC50 is greater than 200 µM.

Question: And the IC50?
Answer: The IC50 was greater than 200 µM.

Question: Which results are given for `O=C(OC[C@H]1C[C@H]2C(=O)CCC[C@H]2O1)c1ccccc1`?
Answer: EC50: > 200 µM; IC50: > 200 µM

Question: How did the EC50 turn out when `CCC1=NC(N/N=C/c2ccco2)=N/C1=C\c1ccccc1O` was run?
Answer: The EC50 was greater than 50.1 µM.

Question: Which results are given for `CCOC(=O)c1c(-c2ccc(Cl)cc2)c(C#N)c(=S)n(C2OC(COC(C)=O)C(OC(C)=O)C(OC(C)=O)C2OC(C)=O)c1C` (stereo not given)?
Answer: EC50: > 200 µM; IC50: 36.3 µM

Question: What does the source list for `O=[N+]([O-])c1ccc(N=Cc2ccc(O)cc2)cc1`?
Answer: EC50: > 200 µM; IC50: 10 µM

Question: Which results are given for `CS(=O)CC(=O)c1ccccn1` (stereo not given)?
Answer: EC50: > 200 µM; IC50: > 200 µM

Question: `COc1ccc(C2CC(=O)c3cc(OC)ccc3O2)cc1` (stereo not given) was tested. Which EC50 did it give?
Answer: The EC50 was greater than 200 µM.

Question: And the IC50?
Answer: Its IC50 is greater than 200 µM.

Question: `CC1(C)OCN(c2ccc(Cl)cc2)Cn2c1nc1ccccc12` was tested. Which EC50 did it give?
Answer: Its EC50 is greater than 200 µM.

Question: And the IC50?
Answer: Its IC50 is 28.8 µM.

Question: With `[N-]=N[N+]#I1OC(C(F)(F)F)(C(F)(F)F)c2ccccc21` as the compound, how does the outcome read?
Answer: The outcome was “inactive”.

Question: With `CNc1ccc(/C=C2\C=Cc3ccccc32)cc1I` as the compound, how does the EC50 read?
Answer: Its EC50 is greater than 20 µM.

Question: What about the IC50 of the same compound?
Answer: Its IC50 is 3.39 µM.

Question: What does the source list for `COC(=O)c1ccc(N/C=C(/C#N)c2ccsc2)cc1`?
Answer: EC50: > 47.9 µM; IC50: > 47.9 µM

Question: Which results are given for `[O-][n+]1onc2c1/C(=N/O)CCC2`?
Answer: EC50: > 200 µM; IC50: > 200 µM

Question: Which EC50 does the source give for `O=[N+]([O-])c1ccc2nc3ccscc-3c2c1` here?
Answer: Its EC50 is greater than 15.5 µM.

Question: What about the IC50 of the same compound?
Answer: The IC50 was 2.88 µM.

Question: How did the EC50 turn out when `CC(=O)[CH-]C(=O)c1ccccc1.CC(=O)[CH-]C(=O)c1ccccc1.CC(=O)[CH-]C(=O)c1ccccc1.[Tl+3]` was run?
Answer: The EC50 was greater than 138 µM.

Question: And the IC50?
Answer: The IC50 was 49 µM.

Question: For `CSc1nnc2c(=O)n(C)c(=O)n(C)c2n1`, which EC50 is on record?
Answer: Its EC50 is greater than 200 µM.

Question: And the IC50?
Answer: Its IC50 is 43.7 µM.

Question: For `Cc1ccc2c(n1)C(N(C)C)=CC(=O)C2=O`, which outcome is on record?
Answer: Its outcome is “inactive”.

Question: Which results are given for `COC(=O)C1(O)CC(=O)CCC1c1ccccc1` (stereo not given)?
Answer: EC50: > 355 µM; IC50: > 355 µM

Question: With `O=C(Cn1cc(-c2ccccc2)nn1)NC1CCCC1` as the compound, how does the EC50 read?
Answer: The EC50 was greater than 200 µM.

Question: And the IC50?
Answer: Its IC50 is greater than 200 µM.

Question: With `O=C1NC(O)c2cccc(Cl)c2O1` (stereo not given) as the compound, how does the outcome read?
Answer: Its outcome is “inactive”.

Question: Which results are given for `CNC1=C2NC(=O)/C(C)=C\C=C\C(C)C(O)C(C)C(O)C(C)C(OC(C)=O)C(C)C(OC)/C=C/OC3(C)Oc4c(C)c(O)c(c(c4C3=O)C1=O)C2=O` (stereo not given)?
Answer: EC50: > 200 µM; IC50: 3.8 µM

Question: Which EC50 does the source give for `O=C1N(c2ccccc2)N=C(c2ccccc2)C12CC2` here?
Answer: Its EC50 is greater than 200 µM.

Question: And the IC50?
Answer: Its IC50 is 107 µM.

Question: `NNS(=O)(=O)c1ccc(/C=C2\NC(=O)NC2=O)cc1` was tested. Which EC50 did it give?
Answer: The EC50 was greater than 200 µM.

Question: And the IC50?
Answer: The IC50 was greater than 200 µM.

Question: Which EC50 does the source give for `CCCCCOC(=O)c1ccc(NC(=O)CN(CC)CC)cc1` here?
Answer: The EC50 was greater than 200 µM.

Question: And the IC50?
Answer: The IC50 was 55 µM.

Question: With `NC(=S)N/N=C(/C(=O)Nc1nc2ccc([N+](=O)[O-])cc2s1)C1C(=O)NC(=S)NC1=O` as the compound, how does the EC50 read?
Answer: Its EC50 is greater than 15.5 µM.

Question: And the IC50?
Answer: Its IC50 is greater than 15.5 µM.

Question: Which EC50 does the source give for `Cc1cc2cc(O)c3c(=O)c4c(O)cccc4c(=O)c3c2c(=O)c1=O` here?
Answer: Its EC50 is greater than 21.4 µM.

Question: What about the IC50 of the same compound?
Answer: The IC50 was 12 µM.

Question: What does the source list for `CCCCOP(=O)(OCCCC)/C(C#N)=C/c1ccco1`?
Answer: EC50: > 219 µM; IC50: 178 µM

Question: What does the source list for `COc1cc2c(cc1OC)C1Cc3cc(OC)c(OC)cc3C(C2)O1`?
Answer: EC50: > 200 µM; IC50: 105 µM

Question: What does the source list for `C/C(=N/NC(=O)c1ccccc1S(N)(=O)=O)C(CN1CCCCC1)C(C1=C(O)C2C=CC=CC2OC1=O)c1ccccc1` (stereo not given)?
Answer: EC50: > 21.4 µM; IC50: > 21.4 µM

Question: `CC#CC(O)(C(=O)OC1CC(C)N(C)C(C)(C)C1)C1CCCC1` (stereo not given) was tested. Which EC50 did it give?
Answer: Its EC50 is greater than 200 µM.

Question: And the IC50?
Answer: Its IC50 is greater than 200 µM.

Question: For `Cc1cccc(C)c1NC(=O)C1C(=O)N(c2c(C)cccc2C)C(=O)/C1=N\N` (stereo not given), which outcome is on record?
Answer: Its outcome is “inactive”.

Question: For `Cc1ccc(NC(=O)CC2C(=O)Nc3ccccc3S2=O)c(C)c1` (stereo not given), which EC50 is on record?
Answer: The EC50 was greater than 15.1 µM.

Question: And the IC50?
Answer: The IC50 was greater than 15.1 µM.

Question: For `CC(C)/C(Cl)=N/OC(NC(=O)Nc1ccc(Cl)c(Cl)c1)(C(F)(F)F)C(F)(F)F`, which outcome is on record?
Answer: Its outcome is “inactive”.

Question: For `CCOC(=O)C(=O)C=P(c1ccccc1)(c1ccccc1)c1ccccc1`, which EC50 is on record?
Answer: The EC50 was 18.6 µM.

Question: What about the IC50 of the same compound?
Answer: Its IC50 is 35.5 µM.

Question: How did the EC50 turn out when `O=c1oc2ccccc2c2nc3cc(Cl)ccc3cc12` was run?
Answer: The EC50 was greater than 50.1 µM.

Question: What about the IC50 of the same compound?
Answer: The IC50 was greater than 50.1 µM.

Question: Which EC50 does the source give for `CC(=O)Nc1ccc(/C=C/C(=O)c2ccccc2)cc1` here?
Answer: The EC50 was greater than 38 µM.

Question: What about the IC50 of the same compound?
Answer: Its IC50 is greater than 38 µM.

Question: What does the source list for `Cc1cccc(/C=N/NC(=S)Nc2ccc(Cl)cc2)n1`?
Answer: EC50: > 200 µM; IC50: 3.16 µM

Question: Which results are given for `O=C1OC(=O)c2c1ccc1ccccc21`?
Answer: EC50: > 50.1 µM; IC50: > 50.1 µM
